Data reported in PubChem BioAssay (NCI).
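Assay format: 96-well plates, 48-hour exposure. TGI marks complete inhibition of growth.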

Columns and labels:
Test in all cases: inhibition of tumour cell growth, NCI panel, 48 h
[1] = system: A549 NSCLC
[2] = system: DU-145 prostate
[3] = system: EKVX NSCLC
[4] = system: HCT-15 colon
[5] = system: MDA-N
[6] = system: NCI-H522 lung
[7] = system: OVCAR-4 ovarian
[8] = system: OVCAR-5 ovarian
[9] = system: SK-MEL-5 melanoma
[10] = system: SNB-19 CNS
[11] = system: SR leukemia

| SMILES | TGI [1] [µM] | TGI [2] [µM] | TGI [3] [µM] | TGI [4] [µM] | TGI [5] [µM] | TGI [6] [µM] | TGI [7] [µM] | TGI [8] [µM] | TGI [9] [µM] | TGI [10] [µM] | TGI [11] [µM] |
| --- | --- | --- | --- | --- | --- | --- | --- | --- | --- | --- | --- |
| COC1=C(OC)C(=O)C(Cc2c(-c3ccccc3)nc3sc(Cl)cn23)=C(C)C1=O | 52 | 49.1 | 41.6 | 36.1 | 34.2 | 30.8 | 18.8 | 56.5 | 29.2 | 35.3 | 72.1 |
| CC[P+](c1ccccc1)(N(C)C)N(C)C | > 100 | > 100 | > 100 | > 100 | > 100 | > 100 | > 100 | > 100 | > 100 | > 100 | > 100 |
| COc1cc2c(cc1OC)C(C1CC1)ON(C)CC2 (stereo not given) | > 100 | > 100 | > 100 | > 100 | > 100 | > 100 | > 100 | > 100 | > 100 | > 100 | > 100 |
| Cc1cc(C)n(C(C)(C(=O)Cc2ccccc2)n2nc(C)cc2C)n1 | > 100 | > 100 | > 100 | > 100 | > 100 | > 100 | > 100 | > 100 | > 100 | > 100 | > 100 |
| Nc1ncnc2c1ncn2CCCNO | > 100 | > 100 | > 100 | > 100 | > 100 | > 100 | > 100 | > 100 | > 100 | > 100 | > 100 |
| O=C(CCCCCCCCC(=O)N1C(=O)CC(=O)N(c2ccc(Cl)cc2)C1=S)N1C(=O)CC(=O)N(c2ccc(Cl)cc2)C1=S | > 100 | > 100 | > 100 | > 100 | > 100 | > 100 | > 100 | > 100 | > 100 | > 100 | 83.7 |
| Nc1c(-c2ccccc2)c2ccc([N+](=O)[O-])cc2c(=O)n1-c1cccc(C(=O)O)c1 | > 100 | > 100 | > 100 | > 100 | > 100 | > 100 | > 100 | > 100 | > 100 | > 100 | > 100 |
| NCC1OC(OC2C(N)CC(N)C(O)C2OC2OC(CO)C(O)C2O)C(N)C(O)C1O (stereo not given) | > 100 | > 100 | > 100 | > 100 | > 100 | > 100 | > 100 | > 100 | > 100 | > 100 | > 50 |
| CCOC(=O)/C=C(/OCC)[C@@H]1C(C(=O)c2ccc(Cl)cc2)[C@@H]1/C(=C\C(=O)OCC)OCC (stereo not given in full) | > 100 | > 100 | > 100 | > 100 | > 100 | > 59.2 | > 100 | > 100 | > 59.9 | > 100 | > 100 |
| Cc1cc(S(=O)(=O)NC2=NCc3c(F)cccc3N2)c(S)cc1Cl | > 100 | > 100 | > 100 | > 100 | > 100 | > 100 | > 100 | > 100 | > 100 | > 100 | > 100 |
